From patent publication US7488716B2 (priority 2001, dated 2009)
Where a SMILES comes first, the peptide text is derived from it. Where no end group is shown, it is not given here. The star is where a group is joined. PEG 22kD = 22 kDa polyethylene glycol (on cysteine); Palmitoyl = CCCCCCCCCCCCCCCC(=O)*

Experiments:
glucagon receptor = biological target: T1, glucagon receptor (Rattus norvegicus, UniProt P30082); assay: Competitive binding of peptide to the glucagon receptor in rat liver plasma membranes (125I glucagon)
T1 construct: glucagon receptor present in the plasma membranes isolated from rat liver; from tissue; host or cells: rat liver plasma membranes
T1 sequence (P30082 27-485): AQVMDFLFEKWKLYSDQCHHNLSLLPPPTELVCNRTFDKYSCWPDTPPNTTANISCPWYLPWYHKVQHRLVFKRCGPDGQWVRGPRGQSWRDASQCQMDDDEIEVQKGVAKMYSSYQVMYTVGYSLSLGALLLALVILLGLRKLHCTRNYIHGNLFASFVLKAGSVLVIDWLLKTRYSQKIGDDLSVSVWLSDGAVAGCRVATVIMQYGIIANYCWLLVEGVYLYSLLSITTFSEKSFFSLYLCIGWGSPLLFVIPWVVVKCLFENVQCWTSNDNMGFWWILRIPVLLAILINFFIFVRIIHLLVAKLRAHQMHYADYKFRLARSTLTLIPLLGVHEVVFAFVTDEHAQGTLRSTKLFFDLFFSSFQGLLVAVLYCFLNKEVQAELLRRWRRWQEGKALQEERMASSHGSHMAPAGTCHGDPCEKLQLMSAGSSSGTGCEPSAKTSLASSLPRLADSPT
Description: The wet weight of the livers was determined and the tissue minced in 5 volumes of ice cold TES buffer and a slurry prepared using a polytron. All buffers and spins were kept at 4° C. The slurry was further homogenized using three strokes of a handheld dounce homogenizer. The homogenate was passed through several layers of cheesecloth and spun at 25,000×g for 10 minutes. Pellets were homogenized in 22.1 ml TES buffer using 10 strokes of a handheld dounce homogenizer. Twenty-seven point nine milliliters of 2.4 M sucrose in TE was added and mixed well. The homogenate was distributed among several tubes, and each tube was overlaid with 7 ml of TES buffer. The tubes were spun at 120,000×g for 60 minutes. The plasma membranes were removed from the interface that formed during the spin, diluted in TES and concentrated using a 15 minute spin at 200,000×g. The resulting pellet was again homogenized in 9.8 ml TES buffer, combined with 10.3 ml 2.4M sucrose, overlaid with 7 ml TES, and centrifuged at 180,000×g for 30 min. […] The final pellet was resuspended in TES. Plasma membranes were stored at −80° C. until ready for use.
(§1) Competitive binding of some polypeptides of the invention to rat liver plasma membranes was measured as follows. Ninety-six-well GF/C filtration plates (Millipore, Bedford, Mass.) were blocked with 0.1% PEI for at least one hour and washed twice with binding buffer consisting of 20 mM Tris, 2 mM EDTA, pH 7.5, 1 mg/ml BSA, and 1 mg/ml bacitracin. […] The plates were dried, scintillant was added to each well, and cpm per well determined using a Wallac Microbeta counter.

GLP-1 receptor [1] = biological target: T2, GLP-1 receptor (Rattus norvegicus, UniProt P32301); assay: Peptide signaling through GLP-1 receptor, cAMP scintillation proximity assay in RINm5F cells; format: cell-based; conditions: for GLP1 Relative Potency: EC50 of native GLP-1 (7-36) divided by EC50 of polypeptide x 100, cAMP in RINm5F cells; for Emax: RIN-m5F, read-out: % GLP1 max; for % GLP1 max: maximal cAMP activity relative to native GLP-1 (7-36), RINm5F cells
T2 construct: endogenous in cells; host or cells: RINm5F cells
T2 sequence (P32301 22-463): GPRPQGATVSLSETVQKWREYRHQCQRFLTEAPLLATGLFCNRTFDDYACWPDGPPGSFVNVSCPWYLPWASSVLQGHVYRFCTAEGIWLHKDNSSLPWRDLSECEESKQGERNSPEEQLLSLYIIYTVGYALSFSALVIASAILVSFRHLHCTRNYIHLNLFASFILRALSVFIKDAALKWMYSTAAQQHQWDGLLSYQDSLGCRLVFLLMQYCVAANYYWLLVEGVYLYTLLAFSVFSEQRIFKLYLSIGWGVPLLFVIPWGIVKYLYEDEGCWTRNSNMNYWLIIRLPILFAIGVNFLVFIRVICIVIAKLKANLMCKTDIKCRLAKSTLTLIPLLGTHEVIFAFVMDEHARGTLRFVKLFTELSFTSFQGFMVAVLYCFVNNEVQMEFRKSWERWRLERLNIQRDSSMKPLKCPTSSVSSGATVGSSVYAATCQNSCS
Description: The media was removed and the cells were washed twice with PBS. […] For assay of peptides conjugated with fatty acid, the BSA was omitted from the incubation buffer. The incubation buffer was removed, and the cells were lysed in the lysis reagent provided with the cAMP Scintillation Proximity Assay (SPA) direct screening assay system (Amersham Pharmacia Biotech Inc, Piscataway, N.J.). The amount of cAMP (in pmol) present in the lysates was determined following instructions provided with this kit.
The amount of cAMP (in pmol) produced at each concentration of peptide was plotted and analyzed by nonlinear regression using Prizm software to determine the EC50 for each peptide.

GLP-1 receptor [2] = biological target: T2, GLP-1 receptor; assay: Competitive binding of peptide to the GLP-1 receptor in RINm5F cell plasma membranes (125I GLP-1); conditions: read-out: GLP1 RIN IC50
Description: Flasks of RINm5F cells were washed with PBS, scraped in 20 mM Hepes-1 mM EDTA-250 mM sucrose buffer containing protease inhibitors (HES) and homogenized in a dounce homogenizer followed by repeated resuspension through a 23 gauge needle. Unbroken cells and nuclei were removed by centrifugation at 500×g for 5 minutes. The pellet was resuspended in HES buffer using a 23 gauge needle and the centrifugation was repeated. The supernatants from the two spins were combined and centrifuged at 40,000×g for 20 min. The resulting plasma membrane pellet was resuspended in HES buffer using a 23 gauge needle followed by a 25 gauge needle. Membranes were stored at −80° C. until use.
as §1, with “RINm5F cell” for “rat liver”, “0.3%” for “0.1%”

[3] = Intraperitoneal glucose tolerance testing (IPGTT) in rats or mice; format: in vivo; conditions: ipGTT in mice 3 hours post dosing with 100 μg/kg peptide
Description: Blood glucose levels during intraperitoneal glucose tolerance testing in rats or mice by some polypeptides of the invention were measured as follows. The in vivo activity of the polypeptides of the invention when administered subcutaneously was examined in rats or mice. Rats or mice fasted overnight were given a subcutaneous injection of control or peptide (100 μg/kg). Basal blood glucose was measured prior to administration of peptides or three or 17 hours after administration of derivatized peptides, and the rats or mice were given 2 g/kg of glucose intraperitoneally. Blood glucose was measured again after 15, 30 and 60 minutes in rats or 30 and 60 minutes in mice.

Molecule	IC50 (glucagon receptor)	GLP1 Relative Potency (GLP-1 receptor [1])	Emax (GLP-1 receptor [1])	IC50 (GLP-1 receptor [2])	In vivo Decrease IpGTT AUC [3]	% GLP1 max (GLP-1 receptor [1])
HSQGTFTSDYAKYLDAKKAKEFIAWLVKGRG [G58]	163 nM	76.1%	99%	6.9 nM		
HSQGTFTSDYARYLDARRAKEFIAWLVRGRG [G82]	33.6 nM	29.9%	97.1%	8.1 nM		
CC(C)C[C@H](NC(=O)[C@H](Cc1ccc(O)cc1)NC(=O)[C@H](CCCCN)NC(=O)[C@H](CO)NC(=O)[C@H](Cc1ccc(O)cc1)NC(=O)[C@H](CC(=O)O)NC(=O)[C@H](CO)NC(=O)[C@@H](NC(=O)[C@H](Cc1ccccc1)NC(=O)[C@@H](NC(=O)CNC(=O)[C@H](CCC(N)=O)NC(=O)[C@H](CO)NC(=O)[C@@H](N)Cc1c[nH]cn1)[C@@H](C)O)[C@@H](C)O)C(=O)N[C@@H](CC(=O)O)C(=O)N[C@@H](CO)C(=O)N[C@@H](CCCNC(=N)N)C(=O)N[C@@H](CCCNC(=N)N)C(=O)N[C@@H](C)C(=O)N[C@@H](CCC(N)=O)C(=O)N[C@@H](CC(=O)O)C(=O)N[C@@H](Cc1ccccc1)C(=O)N[C@H](C(=O)N[C@@H](CCC(N)=O)C(=O)N[C@@H](Cc1c[nH]c2ccccc12)C(=O)N[C@@H](CC(C)C)C(=O)N[C@H](C(=O)N[C@@H](CCCCN)C(=O)NCC(=O)N[C@@H](CCCNC(=N)N)C(N)=O)C(C)C)C(C)C [G1]	6.6 nM	6.9%	112%	6 nM		
HSQGTFTSDYAKYLDARRAKEFIAWLVCGRG [G74]	21.7 nM	8.4%	88.7%	4.4 nM		
HSQGTFTSDYAKYLDAARAKEFIAWLVKGR-NH2 [G57]	178 nM	18.3%	132%	14.7 nM		
CCCCCCCCCCCCCCCC(=O)NCCCC[C@H](NC(=O)[C@H](C)NC(=O)[C@H](CCCNC(=N)N)NC(=O)[C@H](CCCNC(=N)N)NC(=O)[C@H](C)NC(=O)[C@H](CC(=O)O)NC(=O)[C@H](CC(C)C)NC(=O)[C@H](Cc1ccc(O)cc1)NC(=O)[C@H](CCCNC(=N)N)NC(=O)[C@H](C)NC(=O)[C@H](Cc1ccc(O)cc1)NC(=O)[C@H](CC(=O)O)NC(=O)[C@H](CO)NC(=O)[C@@H](NC(=O)[C@H](Cc1ccccc1)NC(=O)[C@@H](NC(=O)CNC(=O)[C@H](CCC(N)=O)NC(=O)[C@H](CO)NC(=O)[C@@H](N)Cc1c[nH]cn1)[C@@H](C)O)[C@@H](C)O)C(=O)N[C@@H](CCC(=O)O)C(=O)N[C@@H](Cc1ccccc1)C(=O)N[C@H](C(=O)N[C@@H](CCCCN)C(=O)N[C@@H](Cc1c[nH]c2ccccc12)C(=O)N[C@@H](CC(C)C)C(=O)N[C@H](C(=O)N[C@@H](CCCNC(=N)N)C(=O)NCC(=O)N[C@@H](CCCNC(=N)N)C(=O)NCC(=O)O)C(C)C)[C@@H](C)CC [G183] (H-HSQGTFTSDYARYLDARRAK(Palmitoyl)EFIKWLVRGRG-OH; N-terminus and C-terminus assumed)		0.6%	90.5%		27%	
HSQGTFTSDYARYLDAKKAKEFIAWLVKGRG [G59]	97.5 nM	22.7%	102%	2.1 nM		
HSQGTFTSDYARYLDARRAKEFIAWLVKGR-NH2 [G55]	139 nM	18.6%	116%	9.8 nM		
HSQGTFTSDYARYLDARRAREFIKWLVRGRC [G185]	48 nM	13.0%	104%	4.5 nM		
HSQGTFTSDYAKYLDARRACEFIAWLVKGRG [G71]	25.6 nM	4.3%	93.3%	5.8 nM		
HSQGTFTSDYAKYLDARRAKEFIAWLVKGRC [G77]	61.1 nM	9.5%	92.1%	8.9 nM		
HSQGTFTSDYAAYLDARRAKEFIAWLVKGR-NH2 [G56]	125 nM	37.2%	115%	6.6 nM		
HSQGTFTSDYAKYLDAAKAKEFIAWLVKGRG [G60]	682 nM	22.3%	95.7%	13.8 nM		
HSQGTFTSDYARYLDARRAREFIKWLVRGRG [G83]	28.6 nM	29.9%	89.4%	3.2 nM		
HSQGTFTSDYARYLDARRAREFIAWLVKGRG [G84]	11.7 nM	61.8%	114%	1.4 nM		
HSQGTFTSDYSKYLEGQAAKEFIAWLVKGR-NH2 [G5]	243 nM	69.9%	109%	0.5 nM		
HSQGTFTSDYAKYLDARRAKEFIAWLVKCRG [G75]	54 nM	6.6%	86.1%	7.7 nM		
HSQGTFTSDYARYLDAAKAKEFIAWLVKGRG [G61]	232 nM	12.1%	96%	10.6 nM		
HSQGTFTSDYAKYLDARRAKEFIAWLVKGRG [G51]	154 nM	58.1%	91.2%	8.2 nM		
HSQGTFTSDYARYLDARRAREFIAWLVRGRGK [G85]	16.1 nM	64.5%	95.8%	1.5 nM		
HSQGTFTSDYAKYLDARRAKEFIAWLVKGRC(22kD) (HSQGTFTSDYAKYLDARRAKEFIAWLVKGRC(PEG 22kD); listed as Homo sapiens) [G277, 22kD PEG linked to the cysteine residue]		1.8%			46%	93.7%
HSQGTFTSDYAKYLDARRAKEFIAWLVKGCG [G76]	59.1 nM	7.7%	85%	10.2 nM		
HSQGTFTSDYARYLDARRAREFIKWLVRGRC(22kD) (HSQGTFTSDYARYLDARRAREFIKWLVRGRC(PEG 22kD); listed as Homo sapiens) [G2185, 22kD PEG linked to the cysteine residue]		6.2%			44%	112.7%
